From patent publication US8741897B2, “Glucocorticoid mimetics, methods of making them, pharmaceutical compositions and uses thereof” (Boehringer Ingelheim Pharmaceuticals Inc., priority 2003, dated 2014)

Columns and labels:
[1] = molecular target: T1, human glucocorticoid receptor (GR) complex (Homo sapiens, UniProt P04150); experiment: Glucocorticoid receptor competitive binding assay (fluorescence polarization, TAMRA-labeled dexamethasone probe); conditions: compounds of Formula (IA)
T1 construct: made in house; host or cells: insect expression system (baculovirus lysate)
T1 sequence (P04150 1-777): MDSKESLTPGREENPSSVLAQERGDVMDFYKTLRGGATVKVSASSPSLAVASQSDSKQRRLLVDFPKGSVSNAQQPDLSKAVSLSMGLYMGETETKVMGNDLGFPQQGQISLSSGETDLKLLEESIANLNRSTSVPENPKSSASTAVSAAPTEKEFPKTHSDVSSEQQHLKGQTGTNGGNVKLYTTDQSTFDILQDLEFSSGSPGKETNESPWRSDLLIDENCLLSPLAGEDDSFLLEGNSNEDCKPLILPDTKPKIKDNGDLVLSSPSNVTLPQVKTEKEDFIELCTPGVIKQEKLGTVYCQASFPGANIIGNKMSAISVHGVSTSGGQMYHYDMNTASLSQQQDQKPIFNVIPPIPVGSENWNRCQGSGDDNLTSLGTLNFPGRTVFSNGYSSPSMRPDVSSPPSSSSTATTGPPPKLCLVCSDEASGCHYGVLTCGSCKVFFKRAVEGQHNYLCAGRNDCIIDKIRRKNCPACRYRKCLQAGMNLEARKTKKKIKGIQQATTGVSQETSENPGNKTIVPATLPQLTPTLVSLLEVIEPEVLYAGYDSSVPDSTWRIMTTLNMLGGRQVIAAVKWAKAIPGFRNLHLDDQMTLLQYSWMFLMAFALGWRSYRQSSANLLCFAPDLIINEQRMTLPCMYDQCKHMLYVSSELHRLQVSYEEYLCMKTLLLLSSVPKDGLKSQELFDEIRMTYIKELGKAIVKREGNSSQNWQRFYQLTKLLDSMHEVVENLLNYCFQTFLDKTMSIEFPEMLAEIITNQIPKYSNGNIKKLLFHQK
Description: Compounds of the invention were evaluated for binding to the steroid receptor by a fluorescence polarization competitive binding assay. Detailed descriptions for preparation of recombinant glucocorticoid receptor (GR) complex used in the assay is described in U.S. patent application Pub.
A. Glucocorticoid Receptor Competitive Binding Assay
Step 1. Characterization of the Fluorescent Probe
The wavelengths for maximum excitation and emission of the fluorescent probe should first be measured. An example of such a probe is rhodamine (TAMRA)-labeled dexamethasone.
The affinity of the probe for the steroid receptor was then determined in a titration experiment. The fluorescence polarization value of the probe in assay buffer was measured on an SLM-8100 fluorometer using the excitation and emission maximum values described above. Aliquots of expression vector lysate were added and fluorescence polarization was measured after each addition until no further change in polarization value was observed. Non-linear least squares regression analysis was used to calculate the dissociation constant of the probe from the polarization values obtained for lysate binding to the probe.
Step 2. Screening for Inhibitors of Probe Binding
This assay uses fluorescence polarization (FP) to quantitate the ability of test compounds to compete with tetramethyl rhodamine (TAMRA)-labeled dexamethasone for binding to a human glucocorticoid receptor (GR) complex prepared from an insect expression system. The assay buffer was: 10 mM TES, 50 mM KCl, 20 mM Na2MoO4.2H2O, 1.5 mM EDTA, 0.04% w/v CHAPS, 10% v/v glycerol, 1 mM dithiothreitol, pH 7.4. Test compounds were dissolved to 1 mM in neat DMSO and then further diluted to 10× assay concentration in assay buffer supplemented with 10% v/v DMSO. Test compounds were serially diluted at 10× assay concentrations in 10% DMSO-containing buffer in 96-well polypropylene plates. Binding reaction mixtures were prepared in 96-well black Dynex microtiter plates by sequential addition of the following assay components to each well: 15 μL of 10× test compound solution, 85 μL of GR-containing baculovirus lysate diluted 1:170 in assay buffer, and 50 μL of 15 nM TAMRA-labeled dexamethasone. Positive controls were reaction mixtures containing no test compound; negative controls (blanks) were reaction mixtures containing 0.7 μM to 2 μM dexamethasone. […] IC50 values were determined by iterative non-linear curve fitting of the FP signal data to a 4-parameter logistic equation.

[2] = system: glucocorticoid receptor function; experiment: one or more of the above assays (GR binding and glucocorticoid receptor cell assays: aromatase, IL-6, TAT, MMTV-Luc, IL-8, ICAM-Luc); type: cell-based; conditions: assay not specified per compound

Row | SMILES | activity in the GR binding assay [1] | activity as agonists of the glucocorticoid receptor function in one or more of the above assays [2]
1 | Cc1ccc(F)cc1C(C)(C)CC(O)(Cc1ccnc2ccccc12)C(F)(F)F (stereo not drawn) [1,1,1-Trifluoro-4-(5-fluoro-2-methylphenyl)-4-methyl-2-quinolin-4-ylmethylpentan-2-ol] | potent activity | potent agonists
2 | Cc1ccc(C)c(C(C)(C)CC(O)(Cc2ccnc3ccccc23)C(F)(F)F)c1 (stereo not drawn) [4-(2,5-Dimethylphenyl)-1,1,1-trifluoro-4-methyl-2-quinolin-4-ylmethylpentan-2-ol] | potent activity | potent agonists
3 | COc1ccc2[nH]c(CC(O)(CC(C)(C)c3cc(F)ccc3C)C(F)(F)F)cc2n1 (stereo not drawn) [1,1,1-Trifluoro-4-(5-fluoro-2-methylphenyl)-2-(5-methoxy-1H-pyrrolo[3,2-b]pyridin-2-ylmethyl)-4-methylpentan-2-ol] | potent activity | potent agonists
4 | COc1ccc(F)cc1C(C)(C)CC(O)(c1c(F)ccc2c(C)ccnc12)C(F)(F)F (stereo not drawn) [1,1,1-Trifluoro-4-(5-fluoro-2-methoxyphenyl)-2-(7-fluoro-4-methylquinolin-8-yl)-4-methylpentan-2-ol] | potent activity | potent agonists
5 | COc1ccc(F)cc1C(C)(C)CC(O)(Cc1cc2c(C)nc(C)nc2[nH]1)C(F)(F)F (stereo not drawn) [2-(2,4-Dimethyl-7H-pyrrolo[2,3-d]pyrimidin-6-ylmethyl)-1,1,1-trifluoro-4-(5-fluoro-2-methoxyphenyl)-4-methylpentan-2-ol] | potent activity | potent agonists
6 | Cc1ccc(C(C)(C)CC(O)(Cc2ccnc3ccccc23)C(F)(F)F)cc1C (stereo not drawn) [4-(3,4-Dimethylphenyl)-1,1,1-trifluoro-4-methyl-2-quinolin-4-ylmethylpentan-2-ol] | potent activity | potent agonists
7 | CC(C)(CC(O)(Cc1ccnc(F)c1)C(F)(F)F)c1cc(F)ccc1O (stereo not drawn) [4-Fluoro-2-[4,4,4-trifluoro-3-(2-fluoropyridin-4-ylmethyl)-3-hydroxy-1,1-dimethylbutyl]phenol] | potent activity | potent agonists
8 | COc1ccc(F)cc1C(C)(C)CC(O)(Cc1cc2c(OC)ncnc2[nH]1)C(F)(F)F (stereo not drawn) [1,1,1-Trifluoro-4-(5-fluoro-2-methoxyphenyl)-2-(4-methoxy-7H-pyrrolo[2,3-d]pyrimidin-6-ylmethyl)-4-methylpentan-2-ol] | potent activity | potent agonists
9 | COc1ccc(F)cc1C(C)(C)CC(O)(Cc1cc2cc(C(=O)NCC(N)=O)ccc2[nH]1)C(F)(F)F (stereo not drawn) [2-[4-(5-Fluoro-2-methoxyphenyl)-2-hydroxy-4-methyl-2-trifluoromethylpentyl]-1H-indole-5-carboxylic acid carbamoylmethylamide] | potent activity | potent agonists
10 | COc1ccc(F)cc1C(C)(C)CC(O)(Cn1ccc2ncccc21)C(F)(F)F (stereo not drawn) [1,1,1-Trifluoro-4-(5-fluoro-2-methoxyphenyl)-4-methyl-2-pyrrolo[3,2-b]pyridin-1-ylmethylpentan-2-ol] | potent activity | 
11 | COc1ccc(F)cc1C(C)(C)CC(O)(Cc1cc2cnccc2o1)C(F)(F)F (stereo not drawn) [1,1,1-Trifluoro-4-(5-fluoro-2-methoxyphenyl)-2-furo[3,2-c]pyridin-2-ylmethyl-4-methylpentan-2-ol] | potent activity | 
12 | COc1ccc(F)cc1C(C)(C)CC(O)(Cn1ccc2cnccc21)C(F)(F)F (stereo not drawn) [1,1,1-Trifluoro-4-(5-fluoro-2-methoxyphenyl)-4-methyl-2-pyrrolo[3,2-c]pyridin-1-ylmethylpentan-2-ol] | potent activity | 
13 | Cc1ccc(F)cc1C(C)(C)CC(O)(Cc1cc2nnccc2[nH]1)C(F)(F)F (stereo not drawn) [1,1,1-Trifluoro-4-(5-fluoro-2-methylphenyl)-4-methyl-2-(5H-pyrrolo[3,2-c]pyridazin-6-ylmethyl)pentan-2-ol] | potent activity | 
14 | COc1ccc(F)cc1C(C)(C)CC(O)(Cc1cc2cc(C(=O)NCCO)ccc2[nH]1)C(F)(F)F (stereo not drawn) [2-[4-(5-Fluoro-2-methoxyphenyl)-2-hydroxy-4-methyl-2-trifluoromethylpentyl]-1H-indole-5-carboxylic acid (2-hydroxyethyl)amide] | potent activity | 
15 | COc1ccc(F)cc1C(C)(C)CC(O)(Cc1cc2ccccc2s1)C(F)(F)F (stereo not drawn) [2-Benzo[b]thiophen-2-ylmethyl-1,1,1-trifluoro-4-(5-fluoro-2-methoxyphenyl)-4-methylpentan-2-ol] | potent activity | 
16 | COc1ccc(F)cc1C(C)(C)CC(O)(Cc1cc2cc(C(=O)NCCCC(=O)O)ccc2[nH]1)C(F)(F)F (stereo not drawn) [4-({2-[4-(5-Fluoro-2-methoxyphenyl)-2-hydroxy-4-methyl-2-trifluoromethylpentyl]-1H-indole-5-carbonyl}amino)butyric acid] | potent activity | 
17 | CC(C)(CC(O)(Cc1cc2cnccc2s1)C(F)(F)F)c1cc(Cl)cc2c1OCC2 (stereo not drawn) [4-(5-Chloro-2,3-dihydrobenzofuran-7-yl)-1,1,1-trifluoro-4-methyl-2-thieno[3,2-c]pyridin-2-ylmethylpentan-2-ol] | potent activity | 
18 | COc1ccc(F)cc1C(C)(C)CC(O)(Cc1cc2ccc(C(=O)N3CCOCC3)cc2[nH]1)C(F)(F)F (stereo not drawn) [{2-[4-(5-Fluoro-2-methoxyphenyl)-2-hydroxy-4-methyl-2-trifluoromethylpentyl]-1H-indol-6-yl}morpholin-4-ylmethanone] | potent activity | 
19 | COc1ccc(F)cc1C(C)(C)CC(O)(Cc1cc2cc(C(=O)N3CCC(=O)CC3)ccc2[nH]1)C(F)(F)F (stereo not drawn) [1-{2-[4-(5-Fluoro-2-methoxyphenyl)-2-hydroxy-4-methyl-2-trifluoromethylpentyl]-1H-indole-5-carbonyl}piperidin-4-one] | potent activity | 
20 | CC(C)(CC(O)(Cc1cc2ccccc2[nH]1)C(F)(F)F)c1cccc(-c2ccccc2)c1 (stereo not drawn) [4-Biphenyl-3-yl-1,1,1-trifluoro-2-(1H-indol-2-ylmethyl)-4-methylpentan-2-ol] | potent activity | 
21 | CC(C)(CC(O)(Cc1cc2ccc(C(=O)N3CCOCC3)cc2[nH]1)C(F)(F)F)c1cc(F)ccc1O (stereo not drawn) [{2-[4-(5-Fluoro-2-hydroxyphenyl)-2-hydroxy-4-methyl-2-trifluoromethylpentyl]-1H-indol-6-yl}morpholin-4-ylmethanone] | potent activity | 
